Experimental findings from patent publication US20170333391A1, “METHOD FOR DELAYING THE ONSET OF PULMONARY FIBROSIS OR TREATING PULMONARY FIBROSIS” (EVERFRONT BIOTECH INC., priority 2016, published 2017) are described below.

The assay concerns type I collagen. Nature of the assay: Type I collagen expression in transfected NHLF (pcDNA3.1 empty vector or pcDNA3.1-SOX2), western blotting (2-3). Type of assay: cell-based, human. To be noted: TGF-β1 5 ng/ml 12 h. The procedure:
The pcDNA3.1 empty vector and the pcDNA3.1-SOX2 plasmid (i.e., pcDNA3.1 vector containing SOX2 gene) were respectively transfected into Normal Human lung fibroblasts (NHLF) by the Fugene HD cell transfection reagent. The cells were screened to obtain NHLFs containing the pcDNA3.1 empty vector or the pcDNA3.1-SOX2 plasmid.
NHLFs containing the pcDNA3.1 empty vector were then seeded into 6 cm culture dishes at a density of 2×10^5 cells/dish, comprising a control group and three experimental groups (4 dishes in total). The cells were cultured until the next day, and then the mediums were removed. Each group was respectively treated under the following conditions to conduct follow-up experiments: • (1) Control group I: cells were cultured in a FGM-2 medium containing 1% serum for 36 hours; • (2) Group A: cells were cultured in a FGM-2 medium containing 1% serum and TGF-β1 (5 ng/ml) for 36 hours; • (3) Group B: cells were firstly cultured in a FGM-2 medium containing 1% serum and TGF-β1 (5 ng/ml) for 12 hours, and then compound (1) was added into the medium to provide a final concentration of 15 μg/ml; thereafter, the cells were cultured for another 24 hours; and • (4) Group C: cells were firstly cultured in a FGM-2 medium containing 1% serum and TGF-β1 (5 ng/ml) for 12 hours, and then compound (1) was added into the medium to provide a final concentration of 30 μg/ml; thereafter, the cells were cultured for another 24 hours.
In another aspect, NHLFs containing the pcDNA3.1-SOX2 plasmid were seeded into the 6 cm culture dishes at a density of 2×10^5 cells/dish, comprising a control group and three experimental groups (4 dishes in total). The cells were cultured until the next day, and then the mediums were removed. Each group was respectively treated under the following conditions to conduct follow-up experiments: • (1) Control group II: cells were cultured in a FGM-2 medium containing 1% serum for 36 hours; • (2) Group D: cells were cultured in a FGM-2 medium containing 1% serum and TGF-β1 (5 ng/ml) for 36 hours; • (3) Group E: cells were firstly cultured in a FGM-2 medium containing 1% serum and TGF-β1 (5 ng/ml) for 12 hours, and then the compound (1) was added into the medium to provide a final concentration of 15 μg/ml; thereafter, the cells were cultured for another 24 hours; and • (4) Group F: cells were firstly cultured in a FGM-2 medium containing 1% serum and TGF-β1 (5 ng/ml) for 12 hours, and then the compound (1) was added into the medium to provide a final concentration of 30 μg/ml; thereafter, the cells were cultured for another 24 hours.
Thereafter, the proteins in the cells of each group were extracted, and the expressions of Sox2 protein, TGF-β protein and type I collagen in the NHLF cells of each group were measured with western blotting. […]
(Immunoblotting shows a protein as a band on a membrane.)

In the case of `CCCC=C1OC(=O)c2ccccc21` [compound (1)], the “Relative expression level (fold) Type I collagen” value is listed as 3.74 fold (Group B: NHLF with pcDNA3.1 empty vector, then compound (1) 15 μg/ml 24 h, control group I = 1, TGF-β1-only group A = 5.83); 0.88 fold (Group C: NHLF with pcDNA3.1 empty vector, then compound (1) 30 μg/ml 24 h, control group I = 1, TGF-β1-only group A = 5.83); 1.30 fold (Group E: NHLF with pcDNA3.1-SOX2 plasmid, then compound (1) 15 μg/ml 24 h, control group II = 1, TGF-β1-only group D = 1.57); 1.29 fold (Group F: NHLF with pcDNA3.1-SOX2 plasmid, then compound (1) 30 μg/ml 24 h, control group II = 1, TGF-β1-only group D = 1.57).
